The source of these data is PMC9132363 (Journal of Medicinal Chemistry, 2022).

Like-named read-outs stand apart in the source and are kept apart here.

Data set [1] deals with ROCK-II (ROKa) (Rattus norvegicus, UniProt Q62868). The experiment in a line: ROCK inhibition studies (33P-ATP, Long S6 substrate peptide). Format: biochemical. The protocol:
ROCK-II (ROKa) (5–20 mU diluted in 50 mM Tris pH 7.5, 0.1 mM EGTA, 0.1% 2-mercaptoethanol, and 1 mg/mL BSA) was assayed against the Long S6 substrate peptide ([…]) in a final volume of 25.5 μL containing 50 mM Tris pH 7.5, 0.1 mM EGTA, 30 μM Long S6 substrate peptide, 10 mM magnesium acetate, and 0.02 mM [33P-g-ATP] (50–1000 cpm/pmol) and incubated for 30 min at room temperature. Assays were stopped by addition of 5 μL of 0.5 M (3%) orthophosphoric acid and then harvested onto P81 Unifilter plates with a wash buffer of 50 mM orthophosphoric acid.

The nature of data set [2]: MTT viability assay. Format: cell-based, human. Conditions: human, HEK293T cells, HEK293T, 16 h, read-out: Cell viability (MTT). Here is the method: (§1) HEK293T cells were plated in 24-well culture plates (75,000 cells/well) and incubated in a CO2 incubator. The next day, treatment was given according to the experimental requirement. Sixteen hours later, 50 μL of MTT solutions from the stock (5 mg/mL) was added, and cells were incubated in a CO2 incubator in the dark for 2 h. The medium was removed, and formazan crystals formed by the cells were dissolved using 500 μL of DMSO followed by transfer in 96-well plates. The absorbance was read at a 570 nm wavelength on a multiwell plate reader.[70]
(In general: Tetrazolium assays rely on reduction of a dye to a coloured formazan, in cell work by metabolically active cells.)

The subject of data set [3] is HEK293T cells. The experiment in a line: MTT viability assay. Conditions: 20 µM, Table S3. The data set is classed as cell-based, human. The protocol:
as §1

Data set [4] concerns NRF2. Kind of data set: 3×ARE-LUC luciferase reporter assay. Format: cell-based, human. The protocol: Transient transfections of HEK293T cells were performed with the expression vectors for TK-Renilla (Promega, Madison, […]) and the expression vector ARE-LUC (Dr. J. Alam, Dept. of Molecular Genetics, Ochsner Clinic Foundation, New Orleans, LA). Cells were seeded on 24-well plates (75,000 cells per well), cultured for 16 h, and transfected using calcium phosphate. Eight hours after transfections, cells were treated with 3 different concentrations of the compounds (6, 20, and 60 μM). […] After 16 h, the cells were lysed and assayed with a dual-luciferase assay system (Promega) according to the manufacturer’s instructions. Relative light units were measured in a GloMax 96 microplate luminometer with dual injectors (Promega).
(In general: In a reporter assay the amount or activity of a reporter protein is the signal.)

Data set [5] deals with NRF2 in SH-SY5Y cells. Kind of data set: Subcellular fractionation and immunoblot of NRF2. The data set is classed as cell-based. To be noted: 20 μM, 1, 2 and 4 h. Here is the method:
SH-SY5Y cells were seeded in p100 plates (1 × 10^6 cells/plate) and treated with 20 μM compound 1d. Cytosolic and nuclear fractions were prepared as described previously.[71] Briefly, cells were washed with cold PBS and harvested by centrifugation at 1100 rpm for 10 min. The cell pellet was resuspended in 3 pellet volumes of cold buffer A (20 mm HEPES, pH 7.0, 0.15 mm EDTA, 0.015 mm EGTA, 10 mm KCl, 1% Nonidet P-40, 1 mm phenylmethylsulfonyl fluoride, 20 mm NaF, 1 mm sodium pyrophosphate, 1 mm sodium orthovanadate, and 1 μg/mL leupeptin) and incubated in ice for 30 min. Then, the homogenate was centrifuged at 500g for 5 min. The supernatants were taken as the cytosolic fraction. The nuclear pellet was resuspended in 5 volumes of cold buffer B (10 mm HEPES, pH 8.0, 0.1 mm EDTA, 0.1 mm NaCl, 25% glycerol, 1 mm phenylmethylsulfonyl fluoride, 20 mm NaF, 1 mm sodium pyrophosphate, 1 mm sodium orthovanadate, and 1 μg/mL leupeptin). After centrifugation in the same conditions indicated above, the nuclei were resuspended in loading buffer containing 0.5% SDS. […]
(§2) Whole cell lysates were prepared in RIPA-buffer (25 mM Tris-HCl, pH 7.6, 150 mM NaCl, 1 mM EGTA, 1% Igepal, 1% sodium deoxycholate, 0.1% SDS, 1 mM PSMF, 1 mM Na3VO4, 1 mM NaF, 1 μg/mL aprotinin, 1 μg/mL leupeptin, and 1 μg/mL pepstatin). […] Immunoblots were analyzed as described previously.[48] […]

Data set [6] has as its system HMOX1/HO-1 and NQO1 in SH-SY5Y cells. The experiment in a line: NRF2 signature (qRT-PCR and immunoblot) in SH-SY5Y cells. Format: cell-based. The protocol:
Whole cell lysates were prepared in RIPA-buffer (25 mM Tris-HCl, pH 7.6, 150 mM NaCl, 1 mM EGTA, 1% Igepal, 1% sodium deoxycholate, 0.1% SDS, 1 mM PSMF, 1 mM Na3VO4, 1 mM NaF, 1 μg/mL aprotinin, 1 μg/mL leupeptin, and 1 μg/mL pepstatin). Whole cell lysates, cytosolic and nuclear fractions containing 25 μg of whole proteins from SH-SY5Y, or lymphoblast-treated cells were loaded for SDS-PAGE electrophoresis. Immunoblots were analyzed as described previously.[48] The primary antibodies used are described in Supporting Information Table S4.
Total RNA extraction, reverse transcription, and quantitative polymerase chain reaction (PCR) were done as detailed in previous articles.[72] Primer sequences are shown in Supporting Information Table S5. Data analysis was based on the ΔΔCT method with normalization of the raw data to housekeeping genes (Applied Biosystems). All PCRs were performed in triplicates.

Data set [7] relates to sALS lymphoblasts. Kind of data set: NRF2 pathway in sALS lymphoblasts. To be noted: 20 μM, 24 h, vs untreated sALS lymphoblasts. Format: cell-based, human.
Description: Peripheral blood samples of all the individuals enrolled in this study were collected after written informed consent of the patients or their relatives (demographic information is presented in Table 9) to establish the lymphoblastoid cell lines (LCLs), by infecting peripheral blood lymphocytes with the Epstein–Barr virus (EBV), as previously described.[68] Participants or their relatives gave written informed consent. This study was approved by the Hospital Doce de Octubre and the Spanish Council of Higher Research Institutional Review Boards. All patients were diagnosed by applying the revised El Escorial criteria.[69] […] Genetic testing for SOD1, TARDBP, FUS, and C9ORF72 was performed in all cases.
LCLs were grown in suspensions in T flasks, in an RPMI-1640 medium containing 2 mM L-glutamine, 100 μg/mL streptomycin/penicillin, and 10% (v/v) fetal bovine serum (FBS) and maintained in a humidified 5% CO2 incubator at 37 °C.
as §2
Total RNA extraction, reverse transcription, and quantitative polymerase chain reaction (PCR) were done as detailed in previous articles.[72] […]

Data set [8] has as its target human serum albumin (HSA) (Homo sapiens, UniProt P02768). Kind of data set: biochemical.
Description: After each addition, the mixture was incubated at rt for 5 min, and then, the emission fluorescence spectra of HAS (λ = 280 nm) were measured using a Fluorometer Max-4P (Horiba Jobin Yvon). The data obtained were further processed using the Stern–Volmer and Scatchard models in GraphPad Prism 8.0 software.

ROCK-II (ROKa), sequence (Q62868 2-543 limits assumed): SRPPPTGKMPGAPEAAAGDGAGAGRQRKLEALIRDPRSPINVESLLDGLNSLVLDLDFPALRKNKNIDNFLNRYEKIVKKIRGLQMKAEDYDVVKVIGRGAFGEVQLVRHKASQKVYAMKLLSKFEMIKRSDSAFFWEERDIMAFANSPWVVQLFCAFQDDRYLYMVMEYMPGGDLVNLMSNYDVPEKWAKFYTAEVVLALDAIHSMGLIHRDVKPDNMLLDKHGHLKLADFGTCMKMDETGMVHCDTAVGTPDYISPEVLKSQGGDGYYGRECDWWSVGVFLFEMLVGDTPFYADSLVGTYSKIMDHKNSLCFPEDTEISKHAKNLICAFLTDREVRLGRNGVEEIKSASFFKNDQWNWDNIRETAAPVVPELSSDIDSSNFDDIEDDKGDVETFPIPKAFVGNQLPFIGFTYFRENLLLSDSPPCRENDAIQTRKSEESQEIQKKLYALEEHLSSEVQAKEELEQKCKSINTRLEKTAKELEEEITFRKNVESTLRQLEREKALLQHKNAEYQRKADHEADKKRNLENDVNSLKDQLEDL
human serum albumin (HSA), sequence (P02768 25-609): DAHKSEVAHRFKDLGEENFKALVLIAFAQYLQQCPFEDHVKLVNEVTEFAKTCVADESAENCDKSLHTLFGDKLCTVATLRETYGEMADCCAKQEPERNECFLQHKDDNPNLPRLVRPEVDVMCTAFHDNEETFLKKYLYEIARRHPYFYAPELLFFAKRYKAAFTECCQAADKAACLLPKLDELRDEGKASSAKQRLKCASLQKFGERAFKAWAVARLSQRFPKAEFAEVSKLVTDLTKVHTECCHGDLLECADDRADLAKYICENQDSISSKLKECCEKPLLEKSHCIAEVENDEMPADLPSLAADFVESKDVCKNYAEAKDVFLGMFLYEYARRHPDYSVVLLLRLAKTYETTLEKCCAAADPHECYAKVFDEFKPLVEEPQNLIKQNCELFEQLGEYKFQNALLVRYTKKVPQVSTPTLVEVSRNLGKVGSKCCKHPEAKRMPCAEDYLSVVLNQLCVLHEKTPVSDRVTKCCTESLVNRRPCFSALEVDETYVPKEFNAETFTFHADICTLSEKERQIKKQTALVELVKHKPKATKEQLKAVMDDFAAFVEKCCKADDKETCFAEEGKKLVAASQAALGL

Take `O=C(CCc1ccc(O)c(O)c1)N1CCCN(S(=O)(=O)c2cccc3cnccc23)CC1` [Compound 1d, 3-(3,4-Dihydroxyphenyl)-1-(4-(isoquinolin-5-ylsulfonyl)-1,4-diazepan-1-yl)propan-1-one]: in data set [1] (0.5 h, 10 microM, supplementary CSV, read-out: ROCK2 activity @ 10microM), the remaining activity at 10 µM was found to be 14.6 ± 4.1%. The 50% inhibitory concentration (IC50) (as a rule, the concentration that gives 50% inhibition) in data set [1] (Table 3, read-out: ROCK2 inhibition IC50) worked out at 0.73 µM. Besides, the “ROCK2 inhibition potency compared with fasudil” value in data set [1] (in words) is reported as “potency similar to the reference compound”. For the same compound, the viability (in general, a read-out of living cells in per cent, often relative to untreated cells) at 16 h, 20 µM in data set [2] (20 μM) was 100 ± 1.02%. Besides, the viability at 16 h, 60 µM in data set [2] (60 μM) amounted to 103.7 ± 0.837%. Moreover, the “MTT (%)” value in data set [3] is listed as below 20%. Besides, in data set [4] (HEK293T, 3×ARE-LUC), the “NRF2 induction, CD (concentration needed to double luciferase expression)” value was 1 µM. Further, the fold induction at 20 µM in data set [4] (Homo sapiens, 16 h, 20 microM, supplementary CSV, read-out: NRF2 induction @ 20 microM (fold change)) stood at 4.4 ± 0.27; in data set [4] (Homo sapiens, HEK-293T, 20 µM, HEK293T, 16 h, read-out: Luciferase assay response) it was 4.4 ± 0.27. Besides, the fold induction at 6 µM in data set [4] (Homo sapiens, HEK-293T, 6 µM, HEK293T, 16 h, read-out: Luciferase assay response) came out at 2.5 ± 0.05. The fold induction at 60 µM in data set [4] (Homo sapiens, HEK-293T, 60 µM, HEK293T, 16 h, read-out: Luciferase assay response) was determined as 13.6 ± 1.6. For the same compound, the “activation of the NRF2 reporter” value in data set [4] (in words, 6, 20 and 60 μM) was “dose-dependent activation”. Further, the “subcellular distribution of NRF2” value in data set [5] was “induced a significant accumulation of NRF2 in the nucleus”. In addition, the “mRNA levels of HMOX1 and NQO1” value in data set [6] (20 μM, 4, 8 and 24 h) was “increased the mRNA levels”. Further, in data set [6] (20 μM, maximum after 24 h), the “protein levels of HO-1 and NQO1” value is reported as “increase in the protein levels”. Besides, the “NRF2 and activity of its signaling pathway” value in data set [7] is recorded as “did not produce a significant increase”. For the same compound, in data set [8], the Kd – broadly, the concentration at which binding is half-saturated – was 1.26 µM.
